Broadly, the EC50 is the concentration at which the effect is half-maximal. A word on the IC50: it is the concentration that gives 50% inhibition. Usually Ki stands for the dissociation constant of the complex between target and ligand, obtained from inhibition or displacement.

This note sets out measurements from patent US11453671B2, “Pyrazolopyrimidine inhibitors of JAK kinases and uses thereof” (Genentech, Inc., priority 2020, dated 2022).

The nature of data set [1]: Cell cytotoxicity assay HEK-293T (CellTiter-Glo, 72 hours). The class given is cell-based. As to conditions: human, HEK-293T cells, Table 4; methyl-desmethyl analog pairs; read-out: Cytotox K-293 EC50. An excerpt: (§1) Cytotoxicity assays. Hepatocyte toxicity, general cytotoxicity or cytotoxicity of unknown mechanism is an undesirable feature for a potential drug, including inhaled drugs. It may be of benefit for an inhaled JAK1 or JAK1/JAK2 inhibitor to have low intrinsic cytotoxicity against various cell types. Typical cell types used to assess cytotoxicity include both primary cells such as human hepatocytes, and proliferating established cell lines such as Jurkat and HEK-293. […] Methods of measuring cytotoxicity are known in the art. In some embodiments, compounds described herein were tested as follows:
(§2) (a) Jurkat and HEK293T cells were maintained at a sub confluent density in T175 flasks. Cells were plated at 450 cells/45 μl medium in Greiner 384 well black/clear tissue culture treated plates. (Greiner Catalog #781091). After dispensing cells, plates were equilibrated at room temperature for 30 minutes. After 30 minutes at room temperature, cells were incubated overnight at 37° C. in a CO2 and humidity controlled incubator. The following day, cells were treated with compounds diluted in 100% DMSO (final DMSO concentration on cells=0.5%) with a 10 point dose-response curve with a top concentration of 50 μM. Cells and compounds were then incubated for 72 hours overnight at 37° C. in a CO2 and humidity controlled incubator. After 72 hours of incubation, viability was measured using CellTiterGlo® (Promega Catalog #G7572) to all wells. After incubation at room temperature for 20 minutes, plates were read on EnVision™ (Perkin Elmer Life Sciences) using luminescence mode;
(§3) A549 (ATCC® CCL-185™), Jurkat clone E6-1 (ATCC® TIB-152™) and HEK-293T (ATCC® CRL-1573™) cells maintained at a sub-confluent density in T175 flasks were used. Cells in exponential growth phase were plated (450 cells in 45 μL of medium) in Greiner 384-well black/clear tissue culture treated plates (Greiner Catalog No. 781091). After dispensing cells, plates were allowed to equilibrate at room temperature for 30 minutes, after which time the cell plates were placed overnight in a 37° C. CO2 and humidity-controlled incubator. The following day, cells were treated with test agent diluted in 100% DMSO (0.5% final DMSO concentration on cells) with a 10-point titration and a top concentration of 50 μM. Cells and compounds were then incubated for 72 hours in a 37° C. CO2 and humidity-controlled incubator, after which time cell viability was measured by adding CellTiter-Glo® (Promega G7572) reagent to all wells. Plates were incubated at room temperature for 20 minutes and then the well luminescence was read on an EnVision plate reader (Perkin Elmer Life Sciences).
Background: Cellular ATP, detected with luciferase, serves as a proxy for viable cell number.

Data set [2] can be described thus: Cell cytotoxicity assay Jurkat (CellTiter-Glo, 72 hours). The class given is cell-based. Particulars: human, Jurkat clone E6-1 cells, Table 4; methyl-desmethyl analog pairs; read-out: Cytotox Jurkat EC50.
Text: as §1, §2, §3

A short description of data set [3]: Cell cytotoxicity assay A549 (CellTiter-Glo, 72 hours). The class given is cell-based. As to conditions: human, A549 cells, Table 4; methyl-desmethyl analog pairs; read-out: Cytotox A549 EC50. The procedure:
as §3

Data set [4] has as its system JAK1: IL-13-stimulated STAT6 phosphorylation in BEAS-2B cells. Briefly: P-STAT6 BEAS-2B+IL-13 Cell Assay. The class given is cell-based, human. Particulars: Homo sapiens, BEAS-2B, IL-13 stimulation, read-out: Cellular JAK1 PSTAT6 BEAS2B + IL13 IC50. How it is done: P-STAT6 BEAS-2B+IL-13 Cell Assay
In order to study the effect of JAK1 inhibitors in a cell line that is relevant to the cell biology of human asthma, an IL-13-stimulated STAT6 phosphorylation assay in the human lung bronchial epithelial BEAS-2B cell line was developed.
BEAS-2B cells (ATCC® CRL-9609™) were grown in Bronchial Epithelial Growth Medium (BEGM) (Lonza Catalog No. CC-3170; Walkersville, Md.; or PromoCell Catalog No. C-21060; Heidelberg, Germany). Test compound stock solutions (0.5 mM in DMSO) were serially diluted 1:2 in DMSO to generate a 10-point concentration curve (at 500×test concentration), which was further diluted by a 50-fold dilution step in BEGM to generate a 10× concentration curve (in 2% DMSO). Cells were plated at 100,000 cells/well in 200 μL of BEGM in 96-well plates and incubated for 48 hours at 37° C. in a humidified incubator. Medium was aspirated from the cells and replaced with 70 μL of fresh BEGM. Diluted test compound (10 μL; or 2% DMSO in assay medium) was added to the cells, and the plates were incubated for 1 hour at 37° C. in a humidified incubator. Twenty μL of 250 ng/mL human recombinant IL-13 (Bio Techne Catalog No. 213-ILB) was then added to the cells and incubated for 15 minutes at 37° C. Medium was aspirated from the cells and 60 μL of ice-cold 1×cell lysis buffer (Cell Signaling Technologies; Catalog No. 9803S) containing 1 mM PMSF was added to the cells. Assay plates were incubated at −80° C. for at least 1 hour. P-STAT6 was measured by coating GAR plates (MSD; Catalog No. L45RA-1) with rabbit anti-human total STAT6 antibody (Cell Signaling Technologies; Catalog No. 9362S), incubating the cell lysates in the coated plates overnight at 4° C., and then detecting with mouse anti-phospho-STAT6 (Tyr641) Clone 16E12 antibody (Millipore; Catalog No. 05-590, custom labeled by MSD with SULFO-tag) using standard MSD plate processing, washing, and detection protocols. Plates were read on the MESO SECTOR S600. Data Analysis
Data analysis was performed by subtracting negative control values from all wells and determining percent of control using the positive control values; the IC50 was determined with a four-parameter logistic fit model as shown in Equation 4.

Data set [5] has as its target Recombinant human JAK2 kinase domain protein (Residues 812-1132) (Homo sapiens, UniProt O60674). Briefly: JAK2 biochemical assay (microfluidic mobility shift, peptide phosphorylation). Particulars: Enzyme JAK2 Ki (nM), 25 μM ATP, 0.2 nM total JAK2.
Method: The in vitro biochemical assays quantify JAK-catalyzed phosphorylation of a synthetic peptide, as detected using a LabChip® EZ Reader II microfluidic mobility shift instrument (PerkinElmer; Waltham, Mass.). […] Y-1B is fluorescently labeled on the N-terminus with 5-FAM (5-carboxyfluorescein) and contains a single tyrosine residue (Y) that can be phosphorylated by JAK activity. The substrate peptide stock is prepared in DMSO at 5 mM.
In each titration experiment, test compound was tested in duplicate at each of the twelve concentrations. Blank reactions contained ATP, peptide, and DMSO, but no JAK or test compound, whereas uninhibited control reactions contained ATP, peptide, JAK, and DMSO, but no test compound.
Peptide plus ATP mixture (24 μL) was added to 1 μL of test compound in DMSO (or DMSO alone). The reactions were initiated by adding 25 μL of JAK enzyme to the inhibitor/peptide/ATP mixture before thoroughly mixing the resultant solution. Reactions were incubated at room temperature (22° C.-23° C.) in a final volume of 50 μL per well in 384-well plates.
In each reaction, the residual Y-1B substrate and the phospho-peptide product generated were separated using the EZ Reader II instrument. Electrophoretic separation of molecules of product from molecules of substrate was achieved using downstream and upstream voltages of −500 and −2600 V, respectively, at an operating pressure of −1.3 psi.
The extent (or percent) of conversion of substrate to product was calculated from the corresponding peak heights in the electropherogram using HTS Well Analyzer software, Version 5.2 (PerkinElmer), and the following equation (Equation 1): % conversion=[P÷(S+P)]×100 Equation 1 where S and P represent the peak heights of the substrate and product, respectively. After any baseline signal from blank wells containing no JAK was subtracted from the signal of all test wells, the % conversion data were converted to fractional activity as shown in Equation 2, where vi and vo are the % conversion in the presence and absence of test compound, respectively.
Data set [6] addresses T1, recombinant human JAK1 kinase domain protein (Residues 854-1154) (Homo sapiens, UniProt P23458).
T1 construct: human JAK1 kinase domain protein (Residues 854-1154); purchased Proteros Biostructures GmbH (Martinsried, Germany); host or cells: insect cells
The data set can be described thus: JAK1 biochemical assay (microfluidic mobility shift, peptide phosphorylation). As to conditions: 25 μM ATP, 1 nM total JAK1; read-out: Enzyme JAK1 Ki. An excerpt:
JAK1 and JAK2 Biochemical Assays

T1 sequence (P23458 854-1154): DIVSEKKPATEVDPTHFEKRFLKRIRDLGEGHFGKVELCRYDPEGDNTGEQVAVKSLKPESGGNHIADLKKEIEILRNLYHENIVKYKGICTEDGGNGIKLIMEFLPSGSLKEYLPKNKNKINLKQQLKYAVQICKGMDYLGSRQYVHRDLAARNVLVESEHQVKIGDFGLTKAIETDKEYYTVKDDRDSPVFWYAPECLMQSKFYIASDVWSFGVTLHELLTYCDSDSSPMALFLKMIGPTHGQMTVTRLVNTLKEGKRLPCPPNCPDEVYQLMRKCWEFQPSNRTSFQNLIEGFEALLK
Sequence of Recombinant human JAK2 kinase domain protein (Residues 812-1132) (O60674 812-1132): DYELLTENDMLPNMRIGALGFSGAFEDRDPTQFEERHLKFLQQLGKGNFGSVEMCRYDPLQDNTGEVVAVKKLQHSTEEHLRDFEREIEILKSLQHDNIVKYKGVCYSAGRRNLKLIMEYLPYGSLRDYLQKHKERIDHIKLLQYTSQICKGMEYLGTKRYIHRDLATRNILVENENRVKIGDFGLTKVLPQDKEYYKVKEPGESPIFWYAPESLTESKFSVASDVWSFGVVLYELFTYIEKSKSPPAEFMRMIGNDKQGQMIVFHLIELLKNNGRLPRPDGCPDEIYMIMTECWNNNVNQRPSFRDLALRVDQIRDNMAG

As for `CS(=O)(=O)c1ccc(OC(F)F)c(-c2n[nH]cc2NC(=O)c2cnn3cccnc23)c1` [Example 4 in WO201708 9390, reference compound], the EC50 at 72 h in data set [1] was 2100 nM; in data set [2] it was 6200 nM; in data set [3] it was 22000 nM.
For the molecule `Cn1cc(NC(=O)c2cnn3cccnc23)c(-c2cc(S(=O)(=O)c3ccc(=O)[nH]c3)ccc2OC(F)F)n1` [Example 43, N-[3-[2-(difluoromethoxy)-5-[(6-oxo-1H-pyridin-3-yl)sulfonyl]phenyl]-1-methyl-pyrazol-4-yl]pyrazolo[1,5-a]pyrimidine-3-carboxamide], the IC50 in data set [4] was ≥ 1000 nM. Further, the Ki in data set [5] is 0.27 nM; in data set [6], 0.5 nM.
With `Cn1cc(NC(=O)c2cnn3cccnc23)c(-c2cc(S(=O)(=O)c3cnn(CCN)c3)ccc2OC(F)F)n1` [Example 47, N-[3-[5-[1-(2-aminoethyl)pyrazol-4-yl]sulfonyl-2-(difluoromethoxy)phenyl]-1-methyl-pyrazol-4-yl]pyrazolo[1,5-a]pyrimidine-3-carboxamide], the IC50 in data set [4] was 210 nM. The inhibitory constant (Ki) in data set [5] stood at 0.33 nM; in data set [6] it was 0.31 nM.
For `N#CCn1cc(NC(=O)c2cnn3cccnc23)c(-c2cc(S(=O)(=O)C3COC3)ccc2OC(F)F)n1` [Example 51, N-[1-(cyanomethyl)-3-[2-(difluoromethoxy)-5-(oxetan-3-ylsulfonyl)phenyl]pyrazol-4-yl]pyrazolo[1,5-a]pyrimidine-3-carboxamide], in that order: 100 nM, 0.21 nM and 0.39 nM.
For `CN1CC(n2cc(NC(=O)c3cnn4cccnc34)c(-c3cc(S(=O)(=O)C4CC4)ccc3OC(F)F)n2)C1` [Example 52, N-[3-[5-cyclopropylsulfonyl-2-(difluoromethoxy)phenyl]-1-(1-methylazetidin-3-yl)pyrazol-4-yl]pyrazolo[1,5-a]pyrimidine-3-carboxamide], the IC50 in data set [4] is 96 nM. In addition, the Ki in data set [5] is 1 nM; in data set [6], 2.2 nM.
`Cn1cc(NC(=O)c2cnn3cccnc23)c(-c2cc(S(=O)(=O)c3cnn(CCN4CCC4)c3)ccc2OC(F)F)n1` [Example 53, N-[3-[5-[1-[2-(azetidin-1-yl)ethyl]pyrazol-4-yl]sulfonyl-2-(difluoromethoxy)phenyl]-1-methyl-pyrazol-4-yl]pyrazolo[1,5-a]pyrimidine-3-carboxamide]: the IC50 in data set [4] is 50 nM. Also, the Ki came out at 0.19 nM in data set [5] and 0.94 nM in data set [6].
For the molecule `CN1CCN(CCn2cc(S(=O)(=O)c3ccc(OC(F)F)c(-c4nn(C)cc4NC(=O)c4cnn5cccnc45)c3)cn2)CC1` [Example 54, N-[3-[2-(difluoromethoxy)-5-[1-[2-(4-methylpiperazin-1-yl)ethyl]pyrazol-4-yl]sulfonyl-phenyl]-1-methyl-pyrazol-4-yl]pyrazolo[1,5-a]pyrimidine-3-carboxamide], the IC50 in data set [4] amounted to 140 nM. The Ki was determined as 0.21 nM in data set [5] and 1.2 nM in data set [6].
The matching figures for `Cn1cc(NC(=O)c2cnn3cccnc23)c(-c2cc(S(=O)(=O)c3cnn(C4CN5CCC4CC5)c3)ccc2OC(F)F)n1` (stereo not drawn) [Example 55, N-[3-[2-(difluoromethoxy)-5-(1-quinuclidin-3-ylpyrazol-4-yl)sulfonyl-phenyl]-1-methyl-pyrazol-4-yl]pyrazolo[1,5-a]pyrimidine-3-carboxamide]: 71 nM, 0.98 nM and 0.93 nM.
For `CN1C=Cc2ccc(S(=O)(=O)c3ccc(OC(F)F)c(-c4nn(C)cc4NC(=O)c4cnn5cccnc45)c3)cc2C1` [Example 62, N-[3-[2-(difluoromethoxy)-5-[(2-methyl-1H-isoquinolin-7-yl)sulfonyl]phenyl]-1-methyl-pyrazol-4-yl]pyrazolo[1,5-a]pyrimidine-3-carboxamide], in that order: 150 nM, 0.93 nM and 2 nM.
For `CN1C=Cc2cc(S(=O)(=O)c3ccc(OC(F)F)c(-c4nn(C)cc4NC(=O)c4cnn5cccnc45)c3)ccc2C1` [Example 64, N-[3-[2-(difluoromethoxy)-5-[(2-methyl-1H-isoquinolin-6-yl)sulfonyl]phenyl]-1-methyl-pyrazol-4-yl]pyrazolo[1,5-a]pyrimidine-3-carboxamide], in that order: 210 nM, 0.84 nM and 1.9 nM.
Regarding `Cn1cnc(S(=O)(=O)c2ccc(OC(F)F)c(-c3nn(C)cc3NC(=O)c3cnn4cccnc34)c2)c1` [Example 65, N-[3-[2-(difluoromethoxy)-5-(1-methylimidazol-4-yl)sulfonyl-phenyl]-1-methyl-pyrazol-4-yl]pyrazolo[1,5-a]pyrimidine-3-carboxamide], the IC50 in data set [4] was found to be 72 nM. Also, the Ki in data set [5] came out at 0.24 nM; in data set [6], 0.72 nM.
For `Cn1cc(NC(=O)c2cnn3cccnc23)c(-c2cc(S(=O)(=O)c3c[nH]cn3)ccc2OC(F)F)n1` [Example 66, N-[3-[2-(difluoromethoxy)-5-(1H-imidazol-4-ylsulfonyl)phenyl]-1-methyl-pyrazol-4-yl]pyrazolo[1,5-a]pyrimidine-3-carboxamide], in that order: 380 nM, 0.18 nM and 0.55 nM.
Turning to `Cn1cc(NC(=O)c2cnn3cccnc23)c(-c2cc(S(=O)(=O)c3cncnc3)ccc2OC(F)F)n1` [Example 67, N-[3-[2-(difluoromethoxy)-5-pyrimidin-5-ylsulfonyl-phenyl]-1-methyl-pyrazol-4-yl]pyrazolo[1,5-a]pyrimidine-3-carboxamide], in data set [4], the IC50 stood at 25 nM. In addition, the Ki in data set [5] turned out to be 0.24 nM; in data set [6] it was 0.48 nM.
In the case of `CCS(=O)(=O)c1ccc(OC(F)F)c(-c2n[nH]cc2NC(=O)c2cnn3cccnc23)c1` [Example. 192 in WO201708 9390, reference compound], the figures for the EC50 at 72 h in data set [1], in data set [2] and in data set [3] were 437 nM, 790 nM and 2370 nM, respectively.
